Key:
CD4+T cells = assay: Alloresponse (T cell proliferation) in allogeneic cell model, 3H thymidine incorporation; format: cell-based, mouse; conditions: allogeneic co-culture; FK506 0.3 mg/ml; microbiome 100 μg/ml in combination; FIG. 1
Procedure: To confirm an effect of the combination of FK506 and a microbiome of the present invention on transplantation rejection, an allogeneic cell model was used. Specifically, in a 96 well plate, 2×10^5 CD4+T cells from a normal responder (Bclb/c) per well were mixed and co-cultured with 2×10^5 splenocytes from which T cells derived from an irradiated responder (syngenic) or donor (C57BL/6, stimulator, allogeneic) were removed. During co-culture, an allogeneic model was treated with five types of Lactobacillus bacteria, Lactobacillus acidophilus (LA), L. reuteri (LRe), L. rhamnosus (LRh), L. paracasei (LPC) or L. casei (LC) alone at 1, 10, and 100 μg/ml, or administered in combination with 0.3 mg/ml of FK506. As a control group, a syngenic transplantation group (Syn group) and an allogeneic transplantation group (Allo group) were used. Thereafter, in order to confirm alloresponses in mice of each group, T cell proliferation responses (alloresponses) were confirmed in the cultured cells using a 3H thymidine incorporation method.

[1] = test system: acute graft-versus-host disease (aGVHD); assay: Disease activity, body weight and probability of survival in acute graft-versus-host disease animal model; format: in vivo, mouse; conditions: aGVHD mice, FK506 5 mg/kg, microbiome 400 mg/kg, oral once daily 4 weeks
Procedure: Specifically, in order to fabricate an aGVHD model, a responder mouse Balb/c (H-2k/d) was subjected to total body irradiation (TBI) of 690 cGy, bone marrow stem cells and splenocytes were isolated from the femur and tibia of a donor mouse C57BL/6 (H-2k/b), and then 5×10^6 bone marrow (BM) stem cells and 5×10^6 splenocytes were transplanted into the responder mouse Balb/c (H-2k/d). Thereafter, after the occurrence of aGVHD, 5 mg/kg of FK506 and 400 mg/kg each of Lactobacillus rhamnosus (LR) or Lactobacillus paracasei (LP) were administered orally once daily for 4 weeks. Disease activity, body weight, and probability of survival of mice in each group were measured once a week to confirm whether the disease activity was suppressed (FIG. 5). As control groups, a syngenic (syn) group transplanted with syngenic cells; a vehicle group, in which aGVHD was induced and saline was injected; and groups administered with FK506, Lactobacillus rhamnosus, and Lactobacillus paracasei alone were used.

IL-17 and IL-10 = IL-17 and IL-10 in culture medium under allo response conditions, ELISA; format: cell-based, human; conditions: hPBMCs, 72 hours, FK506 1 nM, microbiomes 10 μg/ml each, vs Vehicle group
Procedure: Specifically, the proliferation of allo response T cells was confirmed for FK506 alone (1 nM) and a combination of FK506 (1 nM) and L. gasseri (10 μg/ml); L. gasseri (10 μg/ml) and L. acidophilus (10 μg/ml); two microbiomes (each 10 μg/ml) and zinc (50 μM); or two microbiomes (each 10 μg/ml), zinc (50 μM), vitamin B9, and vitamin B12 (B9+B12 20 μM). Specifically, different human peripheral blood mononuclear cells (hPBMCs) were inoculated at a ratio of 1:1 (each concentration of 1×10^5 cells) on a 96 well plate coated with a concentration of anti CD3 0.5 μg/ml, treated with the combination in hPBMCs in which allo conditions were induced, and then cultured for 72 hours. Thereafter, 10 μl of CCK8 was treated to each well and reacted for 4 hours, and then the cell proliferation response was measured by absorbance at 450 nm. As a control group, a Vehicle group in which the active ingredient was replaced with a solvent was used.
It was confirmed whether the combination of FK506 and the microbiome of the present invention regulated the expression of inflammation-related factors under allo response conditions. Specifically, a culture medium of each cell cultured in Example 7-1 was obtained, and the amounts of IL-17 as an inflammatory factor and IL-10 as an inflammation regulator in the culture medium were analyzed by ELISA.

IL-17, IL-10, and IFN-γ = assay: IL-17, IL-10 and IFN-γ in hPBMC under T cell stimulation conditions (anti-CD3), ELISA; format: cell-based, human; conditions: anti-CD3 2 μg/ml, 24 hours, FK506 1 nM, microbiomes 10 μg/ml each
Procedure: (§1) It was confirmed whether the combination of FK506 and the microbiomes of the present inention regulated IL-17 and IL-10 in human peripheral blood mononuclear cells (hPBMCs) under T cell stimulation conditions. Specifically, PBMCs isolated from human peripheral blood were treated with anti-CD3 at a concentration of 2 μg/ml to activate T cells. Thereafter, the PBMCs were treated with FK506 alone (1 nM) and a combination of FK506 (1 nM) and L. gasseri (10 μg/ml); L. gasseri (10 μg/ml) and L. acidophilus (10 μg/ml); two microbiomes (each 10 μg/ml) and zinc (50 μM); or two microbiomes (each 10 μg/ml), zinc (50 μM), vitamin B9, and vitamin B12 (B9+B12 20 μM) and cultured for 24 hours. After completion of the culture, the cell culture medium was obtained, and the amounts of IL-17 and IL-10 in the culture medium were measured by ELISA.

Treg = Treg expression in hPBMC under T cell stimulation conditions, flow cytometry; format: cell-based, human; conditions: anti-CD3 2 μg/ml, 24 hours, FK506 1 nM, microbiomes 10 μg/ml each, zinc 50 μM, B9+B12 20 μM
Procedure: as §1
It was confirmed whether the combination of FK506 and the microbiomes of the present invention regulated the expression of Treg reduced by treatment with the immunosuppressant. Specifically, cells in each group of Example 8-1 were obtained, and expression of Treg was confirmed by flow cytometry.

[2] = test system: Breg and B10 cells, and CD19-positive and IL-10-positive cells; assay: Breg, B10 and CD19-positive IL-10-positive cells in LPS-stimulated hPBMC, flow cytometry; format: cell-based, human; conditions: LPS 100 ng/ml, 24 hours
Procedure: The immune cell regulatory effect of the combination of FK506 and the microbiomes of the present invention in hPBMC according to LPS was confirmed. Specifically, PBMCs isolated from human peripheral […] were treated with LPS at a concentration of 100 ng/ml to activate immune cells. Thereafter, FK506 alone; or a combination of FK506 and L. gasseri; L. gasseri and L. acidophilus; microbiomes and zinc; or microbiomes, zinc, vitamin B9, and vitamin B12 was treated and cultured for 24 hours. After completion of culture, cells in each group were obtained, and the expression of immune B cells Breg and B10 cells, and CD19-positive and IL-10-positive cells was confirmed using flow cytometry.

Question: With `C=CC[C@@H]1/C=C(\C)C[C@H](C)C[C@H](OC)[C@H]2O[C@@](O)(C(=O)C(=O)N3CCCC[C@H]3C(=O)O[C@H](/C(C)=C/[C@@H]3CC[C@@H](O)[C@H](OC)C3)[C@H](C)[C@@H](O)CC1=O)[C@H](C)C[C@@H]2OC.O` [FK506, Tacrolimus] as the molecule, how does the “T cell proliferation (alloresponse)” value (CD4+T cells) read?
Answer: suppressed

Question: And the probability of survival ([1]; at the end of the experiment)?
Answer: 60%

Question: And the body weight ([1]; compared to the vehicle group)?
Answer: increased

Question: What about the disease activity ([1]; compared to the vehicle group) of the same molecule?
Answer: decreased

Question: And the “expression of IL-10 in the culture medium” value (IL-17 and IL-10)?
Answer: significantly decreased

Question: And the “amount of IFN-γ” value (IL-17, IL-10, and IFN-γ; vs Vehicle group)?
Answer: significantly decreased

Question: And the “amount of IL-10” value (IL-17, IL-10, and IFN-γ; zinc 50 μM, B9+B12 20 μM)?
Answer: not expressed

Question: What about the “expression of Treg” value (Treg) of the same molecule?
Answer: significantly decreased

Question: What about the “expression of B10” value [2] of the same molecule?
Answer: decreased

Question: And the “expression of Breg” value ([2]; vs Vehicle group)?
Answer: significantly decreased
